The record followed here is BindingDB's records for doi:10.1021/ml2001196 (2011).

The IC50 is the concentration that gives 50% inhibition.

The nature of test [1]: Antagonist activity at CRTH2 receptor in human whole blood assessed as inhibition of PGD2-induced eosinophil shape change pretreated for 20 mins measured after 1 hr by flow cytometric analysis. (In general: Flow cytometry measures light scatter and fluorescence of single cells or particles in a stream.)
Test [2] in a line: Antagonist activity at CRTH2 receptor in human whole blood assessed as inhibition of PGD2-induced eosinophil chemotaxis.

For `O=C(O)CN1C(=O)[C@@]2(NC(=O)N(Cc3cc(Cl)ccc3F)C2=O)c2cc(Cl)ccc21`, the IC50 was determined as 69 nM in test [1] and 7.4 nM in test [2]. Take `O=C(O)CN1C(=O)[C@@]2(CC(=O)N(Cc3cc(Cl)ccc3F)C2)c2cc(Cl)ccc21` [2-[(3S)-5-chloro-1'-[(5-chloro-2-fluorophenyl)methyl]-1,2-dihydrospiro[indole-3,3'-pyrrolidine]-2,5'-dione]acetic acid]: the IC50 worked out at 1800 nM in test [1] and 62 nM in test [2]. On to `CN1C(=O)N(Cc2cc(Cl)ccc2F)C(=O)[C@]12C(=O)N(CC(=O)O)c1ccc(Cl)cc12`, for which the IC50 in test [2] came to 47 nM. Turning to `CN1C(=O)N(Cc2csc(-c3ccccc3)n2)C(=O)C12C(=O)N(CC(=O)O)c1ccc(Cl)cc12` (stereo unspecified), in test [1], the IC50 was 3940 nM.
